Source: patent US12421212B2, “Substituted benzenecarboxamides as IL-17A modulators” (DiCE Alpha, Inc., priority 2019, dated 2025)

What follows are molecules tested against T1, IL-17A/A (Homo sapiens, UniProt Q16552) (assay: IL-17A/A HEK-Blue Cell Assay). Details: HEK-Blue IL-17A reporter cell line, SEAP readout at A630, 20 hours incubation with IL-17A/A; top concentration 10 uM, 1 uM or 0.3 uM.
T1 construct: purchased Genscript Z03228
T1 sequence (Q16552 24-155): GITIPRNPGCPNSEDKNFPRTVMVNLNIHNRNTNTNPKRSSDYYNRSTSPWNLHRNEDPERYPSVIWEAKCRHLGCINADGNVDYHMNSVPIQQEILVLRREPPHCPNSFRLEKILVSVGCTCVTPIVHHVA
Assay type: cell-based

SMILES | IL-17A/A inhibition (pIC50)
CCC(=O)N[C@H](Cc1ccc(NC(=O)[C@H](Cc2ccc3ccccc3c2)NC(=O)c2ccnn2CC)c(F)c1)C(=O)N1CCN(C)CC1 [Compound 724] | X2b (compounds were evaluated up to 1 uM and inhibited activity at 1 uM by less than 20%)
CCC(=O)N[C@H](Cc1ccc(NC(=O)[C@H](Cc2ccccc2F)NC(=O)c2ccnn2CC)c(F)c1)C(=O)N1CCN(C)CC1 [Compound 725] | X2b (compounds were evaluated up to 1 uM and inhibited activity at 1 uM by less than 20%)
CCC(=O)N[C@H](Cc1ccc(NC(=O)[C@H](Cc2cccc(Cl)c2)NC(=O)c2ccnn2CC)c(F)c1)C(=O)N1CCN(C)CC1 [Compound 726] | X2b (compounds were evaluated up to 1 uM and inhibited activity at 1 uM by less than 20%)
CCC(=O)N[C@H](Cc1ccc(NC(=O)[C@H](Cc2cc(C)cc(C)c2)NC(=O)c2ccnn2CC)c(F)c1)C(=O)N1CCN(C)CC1 [Compound 727] | X2b (compounds were evaluated up to 1 uM and inhibited activity at 1 uM by less than 20%)
CCC(=O)N[C@H](Cc1ccc(NC(=O)[C@@H](NC(=O)c2ccnn2CC)C2Cc3ccccc3C2)c(F)c1)C(=O)N1CCN(C)CC1 [Compound 728] | X2a (compounds were evaluated up to 1 uM and did not inhibit activity by >80%, however they showed some activity at 1 uM (less than 80% and more than 20%))
CCC(=O)N[C@H](Cc1ccc(NC(=O)[C@H](CCC2CCCCC2)NC(=O)c2ccnn2CC)c(F)c1)C(=O)N1CCN(C)CC1 [Compound 729] | X2b (compounds were evaluated up to 1 uM and inhibited activity at 1 uM by less than 20%)
CCC(=O)N[C@H](Cc1ccc(NC(=O)[C@H](CC2CCCCC2)NC(=O)c2ccnn2CC)c(F)c1)C(=O)N1CCN(C)CC1 [Compound 730] | X2b (compounds were evaluated up to 1 uM and inhibited activity at 1 uM by less than 20%)
CCC(=O)N[C@H](Cc1ccc(NC(=O)[C@H](Cc2ccccc2Cl)NC(=O)C(F)(F)c2ccc(OC)nc2)c(F)c1)C(=O)N1CCN(C)CC1 [Compound 731] | X2b (compounds were evaluated up to 1 uM and inhibited activity at 1 uM by less than 20%)
CCC(=O)N[C@H](Cc1ccc(NC(=O)[C@@H](NC(=O)c2ccnn2CC)[C@H]2CC[C@H](C(F)(F)F)CC2)c(F)c1)C(=O)N1CCN(C)CC1 [Compound 732] | X2a (compounds were evaluated up to 1 uM and did not inhibit activity by >80%, however they showed some activity at 1 uM (less than 80% and more than 20%))
CCC(=O)N[C@@H](C(=O)N1CCN(C)CC1)[C@@H](C)c1ccc(NC(=O)[C@@H](NC(=O)C(F)(F)C2CCNCC2)C2CCCCC2)c(F)c1 [Compound 733] | X2b (compounds were evaluated up to 1 uM and inhibited activity at 1 uM by less than 20%)
CCC(=O)N[C@@H](C(=O)N1CCN(C)CC1)[C@@H](C)c1ccc(NC(=O)[C@@H](NC(=O)C(F)(F)C2CCN(C)CC2)C2CCCCC2)c(F)c1 [Compound 734] | X2a (compounds were evaluated up to 1 uM and did not inhibit activity by >80%, however they showed some activity at 1 uM (less than 80% and more than 20%))
CCC(=O)N[C@@H](C(=O)N1CCN(C)CC1)[C@@H](C)c1ccc(NC(=O)[C@@H](NC(=O)C(F)(F)C2CCN(CCO)CC2)C2CCCCC2)c(F)c1 [Compound 735] | X2a (compounds were evaluated up to 1 uM and did not inhibit activity by >80%, however they showed some activity at 1 uM (less than 80% and more than 20%))
CCC(=O)N[C@@H](C(=O)N1CCN(C)CC1)[C@@H](C)c1ccc(NC(=O)[C@@H](NC(=O)c2ccnn2-c2ccccc2)C2CCCCC2)c(F)c1 [Compound 738] | X2a (compounds were evaluated up to 1 uM and did not inhibit activity by >80%, however they showed some activity at 1 uM (less than 80% and more than 20%))
CCC(=O)N[C@@H](C(=O)N1CCN(C)CC1)[C@@H](C)c1ccc(NC(=O)[C@@H](NC(=O)CC2CCNCC2)C2CCCCC2)c(F)c1 [Compound 741] | X2b (compounds were evaluated up to 1 uM and inhibited activity at 1 uM by less than 20%)
CCC(=O)N[C@@H](C(=O)N1CCN(C)CC1)[C@@H](C)c1ccc(NC(=O)[C@H](Cc2ccccc2Cl)NC(=O)c2ccnn2CC)c(F)c1 [Compound 742] | X2a (compounds were evaluated up to 1 uM and did not inhibit activity by >80%, however they showed some activity at 1 uM (less than 80% and more than 20%))
CCn1nccc1C(=O)N[C@H](C(=O)Nc1ccc([C@H](C)[C@@H](NC(=O)c2ccn(C)n2)C(=O)N2CCN(C)CC2)cc1F)C1CCCCC1 [Compound 744] | X2a (compounds were evaluated up to 1 uM and did not inhibit activity by >80%, however they showed some activity at 1 uM (less than 80% and more than 20%))
CCn1nccc1C(=O)N[C@H](C(=O)Nc1ccc([C@H](C)[C@@H](NC(=O)c2ccc(CN(C)C)o2)C(=O)N2CCN(C)CC2)cc1F)C1CCCCC1 [Compound 745] | X2b (compounds were evaluated up to 1 uM and inhibited activity at 1 uM by less than 20%)
CCC(=O)N[C@H](Cc1ccc(NC(=O)[C@@H](NC(=O)c2ccnn2CC)C2CCCCC2)c(F)c1)C(=O)N1CCNCC1 [Compound 746] | X2b (compounds were evaluated up to 1 uM and inhibited activity at 1 uM by less than 20%)
CCC(=O)N[C@@H](C(=O)N1CCN(C)CC1)[C@@H](C)c1ccc(NC(=O)[C@@H](NC(=O)c2ccnn2CC)C2CCOCC2)c(F)c1 [Compound 747] | X2b (compounds were evaluated up to 1 uM and inhibited activity at 1 uM by less than 20%)
CCC(=O)N[C@H](Cc1ccc(NC(=O)[C@@H](NC(=O)c2ccnn2CC)C2CCCCC2)c(F)c1)C(=O)N1CCC(N(C)C)CC1 [Compound 748] | X2a (compounds were evaluated up to 1 uM and did not inhibit activity by >80%, however they showed some activity at 1 uM (less than 80% and more than 20%))
CCC(=O)N[C@H](Cc1ccc(NC(=O)[C@@H](NC(=O)c2ccnn2CC)C2CCCCC2)c(F)c1)C(=O)NCCN(C)C [Compound 749] | X2a (compounds were evaluated up to 1 uM and did not inhibit activity by >80%, however they showed some activity at 1 uM (less than 80% and more than 20%))
CCC(=O)N[C@H](Cc1ccc(NC(=O)[C@@H](NC(=O)c2ccnn2CC)C2CCCCC2)c(F)c1)C(=O)N1CC2(CN(C)C2)C1 [Compound 750] | X2b (compounds were evaluated up to 1 uM and inhibited activity at 1 uM by less than 20%)
CCC(=O)N[C@H](Cc1ccc(NC(=O)[C@@H](NC(=O)c2ccnn2CC)C2CCCCC2)c(F)c1)C(=O)N1CC2(CCN(C)CC2)C1 [Compound 751] | X2b (compounds were evaluated up to 1 uM and inhibited activity at 1 uM by less than 20%)
CCC(=O)N[C@H](Cc1ccc(NC(=O)[C@@H](NC(=O)c2ccnn2CC)C2CCCCC2)c(F)c1)C(=O)NCCO [Compound 752] | X2b (compounds were evaluated up to 1 uM and inhibited activity at 1 uM by less than 20%)
CCC(=O)N[C@@H](C(=O)N1CCN(C)CC1)[C@@H](C)c1ccc(NC(=O)[C@@H](NC(=O)c2csc3cncnc23)C2CCCCC2)c(F)c1 [Compound 754] | X2b (compounds were evaluated up to 1 uM and inhibited activity at 1 uM by less than 20%)
CCC(=O)N[C@H](C(=O)NC1CCOCC1)[C@@H](C)c1ccc(NC(=O)[C@@H](NC(=O)c2ccnn2CC)C2CCCCC2)c(F)c1 [Compound 757] | X2b (compounds were evaluated up to 1 uM and inhibited activity at 1 uM by less than 20%)
CCC(=O)N[C@@H](C(=O)N1CCN(C)CC1)[C@@H](C)c1ccc(NC(=O)[C@@H](NC(=O)[C@@H]2CCCN2C)C2CCCCC2)c(F)c1 [Compound 758] | X2b (compounds were evaluated up to 1 uM and inhibited activity at 1 uM by less than 20%)

Same assay, conditions: HEK-Blue IL-17A reporter cell line, SEAP readout at A630, 20 hours incubation with IL-17A/A; top concentration 10 uM, 1 uM or 0.3 uM; read-out: IL-17A/A inhibition (pIC50) (converted)

SMILES | IC50 [µM]
CCC(=O)N[C@H](Cc1ccc(NC(=O)[C@@H](NC(=O)c2ccnn2CC)C2CCCCC2)c(F)c1)C(=O)N1CCCN(C)CC1 [Compound 760] | 0.1 to 10
CCC(=O)N[C@H](Cc1ccc(NC(=O)[C@@H](NC(=O)c2cncn2CC)C2CCCCC2)c(F)c1)C(=O)N1CCN(C)CC1 [Compound 761] | 0.1 to 10
CCC(=O)N[C@H](Cc1ccc(NC(=O)[C@@H](NC(=O)c2ccnn2CC)C2CCCCC2)c(Cl)c1)C(=O)N1CCN(C)CC1 [Compound 763] | 0.1 to 10
CCC(=O)N[C@H](Cc1ccc(NC(=O)[C@@H](NC(=O)c2conc2CNC(C)=O)C2CCCCC2)c(F)c1)C(=O)N1CCN(C)CC1 [Compound 764] | 0.1 to 10
CCC(=O)N[C@H](Cc1ccc(NC(=O)[C@@H](NC(=O)c2cc(Cl)nn2C)C2CCCCC2)c(F)c1)C(=O)N1CCN(C)CC1 [Compound 765] | 0.1 to 10
CCC(=O)N[C@H](Cc1ccc(NC(=O)[C@@H](NC(=O)c2ccnn2CC)C2CCCCC2)c(C)c1)C(=O)N1CCN(C)CC1 [Compound 766] | 0.1 to 10
CCC(=O)N[C@@H](C(=O)N1CCN(C)CC1)[C@@H](C)c1ccc(NC(=O)[C@@H](NC(=O)c2ccc(CNC(=O)COCC(=O)O)s2)C2CCCCC2)c(F)c1 [Compound 767] | 0.1 to 10
CCC(=O)N[C@@H](C(=O)O)[C@@H](C)c1ccc(NC(=O)[C@@H](NC(=O)c2ccnn2CC)C2CCCCCC2)c(F)c1 [Compound 768] | 0.1 to 10
CCC(=O)N[C@@H](C(=O)N1CCN(C)CC1)[C@@H](C)c1ccc(NC(=O)[C@@H](NC(=O)Cc2ccc(CC(=O)O)cc2)C2CCCCC2)c(F)c1 [Compound 769] | 0.1 to 10
